Data reported in ChEMBL document CHEMBL1201862, “PubChem BioAssay data set” (2004).
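Following 48 hours of exposure in 96-well plates, responses at five concentrations were used to interpolate endpoints linearly. Abbreviation: GI50, concentration required for 50% inhibition of growth.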 Activity calls are given as the source filed them. No stated cut-off is given here; in the data, active = GI50 up to about 1.1 µM and inactive = higher.

Columns and labels:
Experiment in all cases: inhibition of tumour cell growth, NCI panel, 48 h
HOP-62 = system: HOP-62
NCI-H522 = system: NCI-H522
SF-268 = system: SF-268
NCI/ADR-RES = system: NCI/ADR-RES
COLO 205 = system: COLO 205
HCT-116 = system: HCT-116
HOP-92 = system: HOP-92
786-0 = system: 786-0
CCRF-CEM = system: CCRF-CEM
TK-10 = system: TK-10
SW-620 = system: SW-620
OVCAR-3 = system: OVCAR-3
SK-MEL-28 = system: SK-MEL-28
HL-60 = system: HL-60
A498 = system: A498
MDA-MB-231 = system: MDA-MB-231
SNB-19 = system: SNB-19
Malme-3M = system: Malme-3M
T47D = system: T47D

Row | Compound | GI50 (HOP-62) | GI50 (NCI-H522) | GI50 (SF-268) | GI50 (NCI/ADR-RES) | GI50 (COLO 205) | GI50 (HCT-116) | GI50 (HOP-92) | GI50 (786-0) | GI50 (CCRF-CEM) | GI50 (TK-10) | GI50 (SW-620) | GI50 (OVCAR-3) | GI50 (SK-MEL-28) | GI50 (HL-60) | GI50 (A498) | GI50 (MDA-MB-231) | GI50 (SNB-19) | GI50 (Malme-3M) | GI50 (T47D)
1 | N=C(Cc1ccccc1)NCC(=O)O | > 100 µM (inactive) | > 100 µM (inactive) | > 100 µM (inactive) | > 100 µM (inactive) | > 100 µM (inactive) | > 100 µM (inactive) | > 100 µM (inactive) | > 100 µM (inactive) | > 100 µM (inactive) | > 100 µM (inactive) | > 100 µM (inactive) | > 100 µM (inactive) | > 100 µM (inactive) | > 100 µM (inactive) | > 100 µM (inactive) | > 100 µM (inactive) | > 100 µM (inactive) | > 100 µM (inactive) | > 100 µM (inactive)
2 | COC1=CC(=O)c2c(O)c3c(c(O)c2C1=O)OC1(Oc2c(cc4cc(C)oc(=O)c4c2O)CC1O)C3O (stereo not given) | 35.2 µM (inactive) | 25.1 µM (inactive) | 61 µM (inactive) | 46.9 µM (inactive) | 32.8 µM (inactive) | 35.6 µM (inactive) | > 100 µM (inactive) | 40 µM (inactive) | 30.1 µM (inactive) | 50.9 µM (inactive) | 53.7 µM (inactive) | 67.1 µM (inactive) | 46.5 µM (inactive) | 33.3 µM (inactive) | 47.9 µM (inactive) | 24 µM (inactive) | 20.9 µM (inactive) | 2.14 µM (inactive) | 38.1 µM (inactive)
3 | C=C=C(CC1CCCCC1=O)S(=O)(=O)c1ccccc1 (stereo not given) | > 10 µM (inactive) | 0.245 µM (active) | > 10 µM (inactive) | > 10 µM (inactive) | > 10 µM (inactive) | 2.65 µM (inactive) | > 10 µM (inactive) | 4.2 µM (inactive) | 2.16 µM (inactive) | > 10 µM (inactive) | 2.86 µM (inactive) | > 10 µM (inactive) | > 10 µM (inactive) | 1.52 µM (inactive) | > 10 µM (inactive) | > 10 µM (inactive) | > 10 µM (inactive) | > 10 µM (inactive) | > 10 µM (inactive)
4 | COC(=O)/C=C(\C(=O)OC)c1cc(C)c2cc(C(C)C)ccc(C)c1-2 | 34.8 µM (inactive) | 13.1 µM (inactive) | > 100 µM (inactive) | 32 µM (inactive) | 30.3 µM (inactive) | 34 µM (inactive) | 24.5 µM (inactive) | 75.5 µM (inactive) | 71.4 µM (inactive) | 83.9 µM (inactive) | 34 µM (inactive) | 49.4 µM (inactive) | > 100 µM (inactive) | 34.7 µM (inactive) | > 100 µM (inactive) | 24.7 µM (inactive) | > 100 µM (inactive) | 38.5 µM (inactive) | 15.4 µM (inactive)
5 | CCNC(=O)OCC1C2=C(C(=O)C(C)=C(N)C2=O)N2CC3C(N3C)C12OC (stereo not given) | 6.44 µM (inactive) | 11.7 µM (inactive) | 15.7 µM (inactive) | > 75.5 µM (inactive) | 27.6 µM (inactive) | 14.6 µM (inactive) | > 75 µM (inactive) | 10.1 µM (inactive) | 4.21 µM (inactive) | 60.1 µM (inactive) | 9.93 µM (inactive) | 21.9 µM (inactive) | > 81.7 µM (inactive) | 3.94 µM (inactive) | 20.9 µM (inactive) | > 100 µM (inactive) | 24 µM (inactive) | 17.6 µM (inactive) | 55.2 µM (inactive)
6 | CN(NC(=O)/C(=C/c1ccc(O)cc1)NC(=O)c1ccccc1)c1ccnc2cc(Cl)ccc12 | 15.1 µM (inactive) | 21 µM (inactive) | 15.1 µM (inactive) | 14.5 µM (inactive) | 17.5 µM (inactive) | 18.2 µM (inactive) | 17.3 µM (inactive) | 15.9 µM (inactive) | 17.3 µM (inactive) | 15.5 µM (inactive) | 20.8 µM (inactive) | 16.7 µM (inactive) | 19.9 µM (inactive) | 2.79 µM (inactive) | 18.2 µM (inactive) | 20.7 µM (inactive) | 17.2 µM (inactive) | 20 µM (inactive) | 20.5 µM (inactive)
7 | CCCCN1C(=O)C[C@H]2[C@@H]3CCc4cc(OCCN5CCCC5)ccc4[C@H]3CC[C@]2(C)C1=O | 4.07 µM (inactive) | 8.41 µM (inactive) | 12.9 µM (inactive) | 14.7 µM (inactive) | 1.92 µM (inactive) | 3.64 µM (inactive) | 6.08 µM (inactive) | 2.88 µM (inactive) | 4.06 µM (inactive) | 14.6 µM (inactive) | 11.5 µM (inactive) | 10.6 µM (inactive) | 3.45 µM (inactive) | 7.1 µM (inactive) | 14.7 µM (inactive) | 4.71 µM (inactive) | 12.6 µM (inactive) | 3.89 µM (inactive) | 12.3 µM (inactive)
8 | Cc1cc(N)ccc1/N=N\c1ccc(S(=O)(=O)CCOS(=O)(=O)O)cc1 | 6.1 µM (inactive) | 0.274 µM (active) | 6.11 µM (inactive) | 0.41 µM (active) | 2.07 µM (inactive) | 0.34 µM (active) | 5.02 µM (inactive) | 0.414 µM (active) | 0.382 µM (active) | 14 µM (inactive) | 0.368 µM (active) | 3.45 µM (inactive) | 1.69 µM (inactive) | 0.948 µM (active) | 11.2 µM (inactive) | 0.215 µM (active) | 4.72 µM (inactive) | 1.99 µM (inactive) | 12.2 µM (inactive)
9 | CCOC(=O)c1c(C)noc1/N=N/N(CCO)CCO | 32.6 µM (inactive) | 24.2 µM (inactive) | 54.3 µM (inactive) | 35.4 µM (inactive) | 23.1 µM (inactive) | 28.7 µM (inactive) | 24.9 µM (inactive) | 38.2 µM (inactive) | 16.9 µM (inactive) | 56.1 µM (inactive) | 28.3 µM (inactive) | 19.7 µM (inactive) | 49.1 µM (inactive) | 26.1 µM (inactive) | 21.7 µM (inactive) | 38.9 µM (inactive) | 37.2 µM (inactive) | 45.1 µM (inactive) | 10.8 µM (inactive)
10 | Cn1ccnc1Sc1ccc(/C=N\NC(=O)c2cccc(F)c2)cc1[N+](=O)[O-] | 37.3 µM (inactive) | 24.7 µM (inactive) | 24 µM (inactive) | 79.3 µM (inactive) | > 100 µM (inactive) | 83.9 µM (inactive) | 22.7 µM (inactive) | 31.9 µM (inactive) | > 100 µM (inactive) | > 100 µM (inactive) | > 100 µM (inactive) | 50 µM (inactive) | 79.4 µM (inactive) | > 100 µM (inactive) | 29.8 µM (inactive) | 80.2 µM (inactive) | 27.8 µM (inactive) | > 100 µM (inactive) | 36.1 µM (inactive)
11 | OCc1ccc2c(c1)CC1(C2)Cc2cc3c(cc2C1O)CCC3 (stereo not given) | 4.49 µM (inactive) | 3.23 µM (inactive) | 10.9 µM (inactive) | 2.58 µM (inactive) | 3.17 µM (inactive) | 3.37 µM (inactive) | 12.2 µM (inactive) | 5.64 µM (inactive) | 4.01 µM (inactive) | 21.9 µM (inactive) | 4.55 µM (inactive) | 4.78 µM (inactive) | 6.34 µM (inactive) | 2.2 µM (inactive) | 4.44 µM (inactive) | 2.65 µM (inactive) | 4.97 µM (inactive) | 5.01 µM (inactive) | 1.36 µM (inactive)
12 | O=C(O)C(O)C(O)C(O)C(O)CO.[Ba+2] (stereo not given) | > 100 µM (inactive) | > 100 µM (inactive) | > 100 µM (inactive) | > 100 µM (inactive) | > 100 µM (inactive) | > 100 µM (inactive) | > 100 µM (inactive) | > 100 µM (inactive) | > 100 µM (inactive) | > 100 µM (inactive) | > 100 µM (inactive) | > 100 µM (inactive) | > 100 µM (inactive) | 3.12 µM (inactive) | > 100 µM (inactive) | > 100 µM (inactive) | > 100 µM (inactive) | > 100 µM (inactive) | > 100 µM (inactive)
13 | CCOC(=O)C(=CNc1ccc(S(N)(=O)=O)cc1)C(=O)OCC | > 100 µM (inactive) | > 100 µM (inactive) | > 100 µM (inactive) | > 100 µM (inactive) | > 100 µM (inactive) | > 100 µM (inactive) | > 100 µM (inactive) | > 100 µM (inactive) | > 100 µM (inactive) | > 100 µM (inactive) | > 100 µM (inactive) | > 100 µM (inactive) | > 100 µM (inactive) | > 100 µM (inactive) | > 100 µM (inactive) | > 100 µM (inactive) | > 100 µM (inactive) | > 100 µM (inactive) | > 100 µM (inactive)
14 | C=C1CC(c2ccc(OCCCN3C(=O)c4ccccc4C3=O)cc2)OC1=O (stereo not given) | 16.4 µM (inactive) | 0.653 µM (active) | 4.32 µM (inactive) | 8.09 µM (inactive) | 1.91 µM (inactive) | 1.8 µM (inactive) | 1.36 µM (inactive) | 1.95 µM (inactive) | 1.64 µM (inactive) | 4.94 µM (inactive) | 1.48 µM (inactive) | 1.86 µM (inactive) | 1.81 µM (inactive) | 1.96 µM (inactive) | 1.37 µM (inactive) | 3.95 µM (inactive) | 7.38 µM (inactive) | 2.54 µM (inactive) | 2.92 µM (inactive)
15 | COc1ccc(/N=C2\C(=O)Nc3ccc(Br)cc32)cc1 | 29.2 µM (inactive) | 9.38 µM (inactive) | 18.4 µM (inactive) | 18.7 µM (inactive) | 15.7 µM (inactive) | 14.2 µM (inactive) | 18.2 µM (inactive) | 16.3 µM (inactive) | 13.4 µM (inactive) | 23.6 µM (inactive) | 16 µM (inactive) | 21.7 µM (inactive) | 31.3 µM (inactive) | 15.6 µM (inactive) | 38.8 µM (inactive) | 13.9 µM (inactive) | 33.4 µM (inactive) | 19.8 µM (inactive) | 18.3 µM (inactive)
